Reference: PubChem BioAssay (NCI)
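Interpolation was linear, between the two tested concentrations surrounding the appropriate level; five concentrations were tested over 48 hours in 96-well plates. At the GI50, growth is halved. TGI: total growth inhibition.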

Experiments:
Assay in all cases: NCI tumour cell line growth inhibition, 48 h
KM12 colon = tested on: KM12 colon
SN12C renal = tested on: SN12C renal
SK-MEL-2 melanoma = tested on: SK-MEL-2 melanoma
MOLT-4 leukemia = tested on: MOLT-4 leukemia
CAKI-1 renal = tested on: CAKI-1 renal
A549 NSCLC = tested on: A549 NSCLC
BT-549 breast = tested on: BT-549 breast
HOP-62 NSCLC = tested on: HOP-62 NSCLC
SK-MEL-5 melanoma = tested on: SK-MEL-5 melanoma
SNB-75 CNS = tested on: SNB-75 CNS

Structure (SMILES) | GI50 (KM12 colon) | TGI (KM12 colon) | GI50 (SN12C renal) | TGI (SN12C renal) | GI50 (SK-MEL-2 melanoma) | TGI (SK-MEL-2 melanoma) | GI50 (MOLT-4 leukemia) | TGI (MOLT-4 leukemia) | GI50 (CAKI-1 renal) | TGI (CAKI-1 renal) | GI50 (A549 NSCLC) | TGI (A549 NSCLC) | GI50 (BT-549 breast) | TGI (BT-549 breast) | GI50 (HOP-62 NSCLC) | TGI (HOP-62 NSCLC) | GI50 (SK-MEL-5 melanoma) | TGI (SK-MEL-5 melanoma) | GI50 (SNB-75 CNS) | TGI (SNB-75 CNS)
Cc1sc(NC2=NC(=O)/C(=C\c3ccccc3)S2)nc1-c1nc(NC2=NC(=O)/C(=C\c3ccccc3)S2)sc1C | 11.1 µM | > 37.9 µM | 11.4 µM | 29.8 µM | > 35.1 µM | > 50 µM | 24.2 µM | > 50 µM | 12.1 µM | 33.2 µM | 15.5 µM | > 39.6 µM | 18.4 µM | > 50 µM | 8.71 µM | 22.9 µM | 13.1 µM | > 34.5 µM | – | –
O=C(O)c1c[nH]c2c(OCc3ccccc3)c3ccccc3c(O)c2c1=O | 12.6 µM | 29.4 µM | 11.3 µM | 23.3 µM | – | – | 15.6 µM | 36.9 µM | 17 µM | 35 µM | 16.4 µM | 30.7 µM | – | – | 17.5 µM | 31.4 µM | – | – | 19.5 µM | 43.1 µM
COc1ccc(C(=O)CC(=O)C(=O)Nc2ccc(C)c(C)c2)cc1 | – | > 100 µM | – | > 100 µM | – | > 100 µM | – | > 100 µM | – | > 100 µM | – | > 100 µM | – | – | – | > 100 µM | – | > 100 µM | – | 94.6 µM
CCCCCNC(=O)c1c(O)[nH]c(=S)[nH]c1=O | – | > 100 µM | – | > 100 µM | – | > 100 µM | – | > 100 µM | – | > 100 µM | – | > 100 µM | – | – | – | > 100 µM | – | > 100 µM | – | > 100 µM
COc1ccc2cc(Cn3cc[n+](Cc4ccc5ccccc5c4)c3)ccc2c1 | 1.72 µM | 3.43 µM | 2.53 µM | 8.97 µM | 1.91 µM | 4.65 µM | 2.31 µM | 7.62 µM | – | – | 8.16 µM | 23.7 µM | 1.96 µM | 4.17 µM | 4.23 µM | 20.9 µM | 1.33 µM | 2.62 µM | 1.39 µM | 4.19 µM
COc1ccc(-c2nc(N3CCOCC3)c3sc(CN(C)c4ncc(C(=O)NO)cn4)cc3n2)cn1 | – | – | 0.0168 µM | 1.27 µM | 0.02 µM | 0.0799 µM | – | – | 0.0176 µM | 0.0436 µM | < 0.01 µM | 0.0625 µM | 0.014 µM | 0.15 µM | < 0.0106 µM | 0.123 µM | – | – | < 0.01 µM | 0.152 µM
CCOC(=O)C(=O)Nc1c(C)cccc1C(C)C | – | > 100 µM | – | > 100 µM | – | > 100 µM | – | > 100 µM | – | > 100 µM | – | > 100 µM | – | – | – | > 100 µM | – | > 100 µM | – | > 100 µM
CCOC(=O)C(C(=O)OCC)=C1N[C@H](C(=O)OCC)CS1 | – | > 100 µM | – | > 100 µM | – | > 100 µM | – | > 100 µM | – | > 100 µM | – | > 100 µM | – | – | – | > 100 µM | – | > 100 µM | – | –
COc1ccccc1C(N)c1ccccc1 (stereo unspecified) | – | > 100 µM | – | > 100 µM | – | – | – | > 100 µM | – | – | – | > 100 µM | – | – | – | > 100 µM | – | > 100 µM | – | > 100 µM
Cc1ccc(NC2=C(Cl)C(=O)N(Cc3ccccc3)C2=O)cc1Cl | 13.7 µM | 26.6 µM | 3.4 µM | 15.8 µM | – | – | 1.71 µM | 6.81 µM | 5.92 µM | 26 µM | 5.74 µM | 18.8 µM | 1.68 µM | 14.9 µM | 12.6 µM | 25.2 µM | 5.64 µM | 19.1 µM | – | –
CCOC(=O)N[C@@H]1C2CC(=O)C(O2)[C@@H]1OC (stereo partly specified) | – | > 100 µM | – | > 100 µM | – | > 100 µM | – | > 100 µM | – | > 100 µM | – | > 100 µM | – | – | – | > 100 µM | – | > 100 µM | – | > 100 µM
COC(=O)CS(=O)c1ccccc1 (stereo unspecified) | – | > 100 µM | – | 40.4 µM | – | > 100 µM | – | 41.4 µM | – | > 100 µM | – | > 100 µM | – | – | – | 83.3 µM | – | > 100 µM | – | –
c1ccc(CN2CCCCC(Sc3ccccc3)CC2)cc1 (stereo unspecified) | – | > 100 µM | – | 61.8 µM | – | 90.5 µM | – | 50.7 µM | – | 69.6 µM | – | > 100 µM | – | – | – | > 100 µM | – | 34.1 µM | – | > 100 µM
CCOC(=O)c1c(Cl)c2c(n1Cc1cccc(OC)c1)-c1oncc1CC2 | 0.732 µM | 77.9 µM | 6.04 µM | > 100 µM | 5.61 µM | 67.3 µM | 3.48 µM | > 100 µM | 1.85 µM | > 100 µM | 5.16 µM | > 100 µM | – | – | 2.89 µM | > 100 µM | 1.24 µM | 10.5 µM | 1.61 µM | 5.35 µM
Cc1cc(=O)oc2c(OS(C)(=O)=O)c(OS(C)(=O)=O)ccc12 | – | > 100 µM | – | > 100 µM | – | > 100 µM | – | > 100 µM | – | > 100 µM | – | > 100 µM | – | > 100 µM | – | > 100 µM | – | > 100 µM | – | –
COc1ccc(C(=O)C(C(=O)C(=O)NC2C3CC4CC(C3)CC2C4)c2ccc(OC)cc2)cc1 (stereo unspecified) | – | > 100 µM | – | > 100 µM | – | > 100 µM | – | > 100 µM | – | > 100 µM | – | > 100 µM | – | – | – | > 100 µM | – | > 100 µM | – | > 100 µM
CCCCCCCCCCCCCCCCCC(=O)OCC(C[As](=O)(O)O)OC(=O)CCCCCCCCCCCCCCCCC (stereo unspecified) | – | > 100 µM | – | > 100 µM | – | > 100 µM | – | > 100 µM | – | > 100 µM | – | > 100 µM | – | – | – | 85.2 µM | – | > 100 µM | – | 81.6 µM
COC1=CC(c2ccc[nH]2)=N/C1=C\c1[nH]c(C)c(C(C)=O)c1C | 0.262 µM | > 100 µM | 4.46 µM | > 100 µM | 1.99 µM | 6.63 µM | 0.032 µM | > 100 µM | 0.63 µM | > 100 µM | 2.02 µM | > 44.8 µM | 0.222 µM | > 100 µM | 0.69 µM | > 42.2 µM | 0.768 µM | 3.07 µM | – | –
